Reference: patent publication US11325938B2, “CD73 inhibitors” (ORIC Pharmaceuticals, Inc., priority 2018, dated 2022)

biological target: CD73 (Homo sapiens (Human), UniProt P21589); assay: Biochemical assay: inhibition of CD73 activity (AMP hydrolysis, Malachite Green readout); conditions: CD73 0.3208 nM, AMP 15 μM, 25 mM Tris-HCl pH 7.4, RT, absorbance 620 nm
How it was run: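 Phosphate from AMP hydrolysis (15 μM AMP, 10 min, RT) was detected by Malachite Green absorbance to give IC50s. Enzyme at 320 pM was first exposed 15 min to compounds, dosed from 100 μM in ½-log steps, in Tris pH 7.4 buffer with MgCl2, Brij-35 and BSA.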

CD73, sequence (P21589 27-574): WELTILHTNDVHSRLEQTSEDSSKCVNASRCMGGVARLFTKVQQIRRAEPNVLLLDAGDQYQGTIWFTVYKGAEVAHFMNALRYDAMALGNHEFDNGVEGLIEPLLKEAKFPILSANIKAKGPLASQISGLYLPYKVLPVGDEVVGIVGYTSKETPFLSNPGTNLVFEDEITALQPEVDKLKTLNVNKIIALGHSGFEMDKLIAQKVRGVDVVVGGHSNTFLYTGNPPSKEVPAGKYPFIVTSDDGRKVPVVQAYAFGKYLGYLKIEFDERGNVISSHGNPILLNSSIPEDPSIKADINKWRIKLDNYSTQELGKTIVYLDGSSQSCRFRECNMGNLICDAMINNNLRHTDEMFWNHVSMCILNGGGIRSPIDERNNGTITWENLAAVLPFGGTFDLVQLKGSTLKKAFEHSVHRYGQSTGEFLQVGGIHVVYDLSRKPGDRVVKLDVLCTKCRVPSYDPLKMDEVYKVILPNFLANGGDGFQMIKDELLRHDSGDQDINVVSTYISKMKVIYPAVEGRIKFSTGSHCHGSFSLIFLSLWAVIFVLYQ

IC50, ≤ 100 nM:
CC(CO)(OC[C@H]1O[C@@H](n2ccc3c(NC4CCCC4)nc(Cl)nc32)[C@H](O)[C@@H]1O)P(=O)(O)O (stereo partly drawn) [Example 91, (2-(((2R,3S,4R,5R)-5-(2-Chloro-4-(cyclopentylamino)-7H-pyrrolo[2,3-d]pyrimidin-7-yl)-3,4-dihydroxytetrahydrofuran-2-yl)methoxy)-1-hydroxypropan-2-yl)phosphonic acid]
O=P(O)(O)C(CO)OC[C@H]1O[C@@H](n2ccc3c(NC4CCCC4)nc(Cl)nc32)[C@H](O)[C@@H]1O (stereo partly drawn) [Example 117, (1-(((2R,3S,4R,5R)-5-(2-chloro-4-(cyclopentylamino)-7H-pyrrolo[2,3-d]pyrimidin-7-yl)-3,4-dihydroxytetrahydrofuran-2-yl)methoxy)-2-hydroxyethyl)phosphonic acid]
C[C@](CO)(OC[C@H]1O[C@@H](n2ncc3c(NC4CCCC4)nc(OCCO)nc32)[C@H](O)[C@@H]1O)P(=O)(O)O [Example 147, ((S)-2-(((2R,3S,4R,5R)-5-(4-(cyclopentylamino)-6-(2-hydroxyethoxy)-1H-pyrazolo[3,4-d]pyrimidin-1-yl)-3,4-dihydroxytetrahydrofuran-2-yl)methoxy)-1-hydroxypropan-2-yl)phosphonic acid]
O=P(O)(O)COC[C@H]1O[C@@H](n2nnc3c(NCc4cccc(Cl)c4)cc(Cl)nc32)[C@H](O)[C@@H]1O [Example 22, ((((2R,3S,4R,5R)-5-(5-chloro-7-((3-chlorobenzyl)amino)-3H-[1,2,3]triazolo[4,5-b]pyridin-3-yl)-3,4-dihydroxytetrahydrofuran-2-yl)methoxy)methyl)phosphonic acid]
COC[C@@](C)(OC[C@H]1O[C@@H](n2ncc3c(NCC4CC4)nc(Cl)nc32)[C@H](O)[C@@H]1O)P(=O)(O)O [Example 129, ((S)-2-(((2R,3S,4R,5R)-5-(6-chloro-4-((cyclopropylmethyl)amino)-1H-pyrazolo[3,4-d]pyrimidin-1-yl)-3,4-dihydroxytetrahydrofuran-2-yl)methoxy)-1-methoxypropan-2-yl)phosphonic acid]
O=P(O)(O)C(CO)(Cc1nn[nH]n1)OC[C@H]1O[C@@H](n2ncc3c(NC4CCCC4)nc(Cl)nc32)[C@H](O)[C@@H]1O (stereo partly drawn) [Example 84, (2-(((2R,3S,4R,5R)-5-(6-Chloro-4-(cyclopentylamino)-1H-pyrazolo[3,4-d]pyrimidin-1-yl)-3,4-dihydroxytetrahydrofuran-2-yl)methoxy)-1-hydroxy-3-(2H-tetrazol-5-yl)propan-2-yl)phosphonic acid]
O=P(O)(O)[C@@H](CO)OC[C@H]1O[C@@H](n2nnc3c(NC4CCCC4)cc(Cl)nc32)[C@H](O)[C@@H]1O [Example 149, ((S)-1-(((2R,3S,4R,5R)-5-(5-chloro-7-(cyclopentylamino)-3H-[1,2,3]triazolo[4,5-b]pyridin-3-yl)-3,4-dihydroxytetrahydrofuran-2-yl)methoxy)-2-hydroxyethyl)phosphonic acid]
COCC(C)(OC[C@H]1O[C@@H](n2nnc3c(NC4CCCC4)nc(Cl)nc32)[C@H](O)[C@@H]1O)P(=O)(O)O (stereo partly drawn) [Example 82, (2-(((2R,3S,4R,5R)-5-(5-chloro-7-(cyclopentylamino)-3H-[1,2,3]triazolo[4,5-d]pyrimidin-3-yl)-3,4-dihydroxytetrahydrofuran-2-yl)methoxy)-1-methoxypropan-2-yl)phosphonic acid]
COCC(COC)(OC[C@H]1O[C@@H](n2ncc3c(NC4CCC4)nc(Cl)nc32)[C@H](O)[C@@H]1O)P(=O)(O)O (racemic) [Example 174, rac-(2-(((2R,3S,4R,5R)-5-(6-chloro-4-(cyclobutylamino)-1H-pyrazolo[3,4-d]pyrimidin-1-yl)-3,4-dihydroxytetrahydrofuran-2-yl)methoxy)-1,3-dimethoxypropan-2-yl)phosphonic acid]
C[C@](CS(C)(=O)=O)(OC[C@H]1O[C@@H](n2ncc3c(NC4CCCC4)nc(Cl)nc32)[C@H](O)[C@@H]1O)P(=O)(O)O [Example 73, ((S)-2-(((2R,3S,4R,5R)-5-(6-chloro-4-(cyclopentylamino)-1H-pyrazolo[3,4-d]pyrimidin-1-yl)-3,4-dihydroxytetrahydrofuran-2-yl)methoxy)-1-(methyslulfonyl)propan-2-yl)phosphonic acid]
C[C@@](CS(C)(=O)=O)(OC[C@H]1O[C@@H](n2ncc3c(NC4CCCC4)nc(Cl)nc32)[C@H](O)[C@@H]1O)P(=O)(O)O [Example 74, ((R)-2-(((2R,3S,4R,5R)-5-(6-chloro-4-(cyclopentylamino)-1H-pyrazolo[3,4-d]pyrimidin-1-yl)-3,4-dihydroxytetrahydrofuran-2-yl)methoxy)-1-(methylsulfonyl)propan-2-yl)phosphonic acid]
O=P(O)(O)C(CO)OC[C@@H]1C[C@@H](O)[C@H](n2ncc3c(NC4CCCC4)nc(Cl)nc32)O1 (stereo partly drawn) [Example 40, (1-(((2S,4R,5R)-5-(6-chloro-4-(cyclopentylamino)-1H-pyrazolo[3,4-d]pyrimidin-1-yl)-4-hydroxytetrahydrofuran-2-yl)methoxy)-2-hydroxyethyl)phosphonic acid]
O=P(O)(O)C(CO)OC[C@H]1O[C@@H](n2nnc3c(NC4CCCC4)cc(Cl)nc32)[C@H](O)[C@@H]1O (stereo partly drawn) [Example 60, (1-(((2R,3S,4R,5R)-5-(5-chloro-7-(cyclopentylamino)-3H-[1,2,3]triazolo[4,5-b]pyridin-3-yl)-3,4-dihydroxytetrahydrofuran-2-yl)methoxy)-2-hydroxyethyl)phosphonic acid]
Cn1nnc(CC(CO)(OC[C@H]2O[C@@H](n3ncc4c(NC5CCCC5)nc(Cl)nc43)[C@H](O)[C@@H]2O)P(=O)(O)O)n1 (stereo partly drawn) [Example 96, (2-(((2R,3S,4R,5R)-5-(6-chloro-4-(cyclopentylamino)-1H-pyrazolo[3,4-d]pyrimidin-1-yl)-3,4-dihydroxytetrahydrofuran-2-yl)methoxy)-1-hydroxy-3-(2-methyl-2H-tetrazol-5-yl)propan-2-yl)phosphonic acid]
NC(=O)OC[C@](CO)(OC[C@H]1O[C@@H](n2ncc3c(NC4CCCC4)nc(Cl)nc32)[C@H](O)[C@@H]1O)P(=O)(O)O (racemic) [Example 216, rac-((R)-1-(carbamoyloxy)-2-(((2R,3S,4R,5R)-5-(6-chloro-4-(cyclopentylamino)-1H-pyrazolo[3,4-d]pyrimidin-1-yl)-3,4-dihydroxytetrahydrofuran-2-yl)methoxy)-3-hydroxypropan-2-yl)phosphonic acid]
CCS(=O)(=O)C[C@@](C)(OC[C@H]1O[C@@H](n2ncc3c(NC4CCCC4)nc(Cl)nc32)[C@H](O)[C@@H]1O)P(=O)(O)O [Example 138, ((S)-2-(((2R,3S,4R,5R)-5-(6-chloro-4-(cyclopentylamino)-1H-pyrazolo[3,4-d]pyrimidin-1-yl)-3,4-dihydroxytetrahydrofuran-2-yl)methoxy)-1-(ethylsulfonyl)propan-2-yl)phosphonic acid]
O=P(O)(O)[C@@](CO)(COCC1CC1)OC[C@H]1O[C@@H](n2ncc3c(NC4CCCC4)nc(Cl)nc32)[C@H](O)[C@@H]1O (racemic) [Example 171, rac-((R)-2-(((2S,3R,4S,5S)-5-(6-chloro-4-(cyclopentylamino)-1H-pyrazolo[3,4-d]pyrimidin-1-yl)-3,4-dihydroxytetrahydrofuran-2-yl)methoxy)-1-(cyclopropylmethoxy)-3-hydroxypropan-2-yl)phosphonic acid]
